Measured values from the NIST ThermoML archive (doi:10.1021/je100033s).
Numbers after ± are expanded uncertainties.

Assays:
[1] = refractive index (Na D-line) (dimensionless); conditions: 101.33 kPa, Liquid, Standard Abbe refractometry
[2] = Liquid; for mass density: 101.33 kPa, Pycnometric method; for Normal boiling temperature: Ebulliometric method (Recirculating still)

refractive index ([1]; 298.1 K)	mass density ([2]; 298.1 K)	Normal boiling temperature [2]	refractive index ([1]; 293.1 K)	mass density ([2]; 293.1 K)	SMILES
1.4775 ± 0.0007	1096.1 ± 1 kg/m3	188.91 ± 0.2 °C			C[S+](C)[O-] [dimethyl sulfoxide]
		81.50 ± 0.2 °C	1.3449 ± 0.0007	783.1 ± 0.7 kg/m3	CC#N [acetonitrile]
		97.09 ± 0.2 °C	1.386 ± 0.0007	804 ± 0.7 kg/m3	CCCO [propan-1-ol]
